Counter-ions that a name gives are not always drawn.
Tests used:
Brd4 bromodomain 1 = biological target: T1, Brd4 bromodomain 1 (Homo sapiens, UniProt O60885); assay: Inhibition of tetra-acetylated histone H4 binding to BET bromodomains (TR-FRET); set-up: key: Active: Compounds with an IC50 value less than 30 μM were deemed to be active.; Not Active: Compounds with an IC50 value less than 30 μM were deemed to be active; settings: first bromodomain of Brd4, tetra-acetylated histone H4 peptide
T1 construct: made in house; host or cells: E. coli BL21(DE3)
Protocol: Proteins were cloned and overexpressed with a N-terminal 6×His tag, then purified by nickel affinity followed by size exclusion chromatography. Briefly, E. coli BL21(DE3) cells were transformed with a recombinant expression vector encoding N-terminally Nickel affinity tagged bromodomains from Brd2, Brd3, Brd4. Cell cultures were incubated at 37° C. with shaking to the appropriate density and induced overnight with IPTG. The supernatant of lysed cells was loaded onto Ni-IDA column for purification. Eluted protein was pooled, concentrated and further purified by size exclusion chromatography. Fractions representing monomeric protein were pooled, concentrated, aliquoted, and frozen at −80° C. for use in subsequent experiments.
Binding of tetra-acetylated histone H4 and BET bromodomains was confirmed by a Time Resolved Fluorescence Resonance Energy Transfer (TR-FRET) method. N-terminally His-tagged bromodomains (200 nM) and biotinylated tetra-acetylated histone H4 peptide (25-50 nM, Millipore) were incubated in the presence of Europium Cryptate-labeled streptavidin (Cisbio Cat. #610SAKLB) and XL665-labeled monoclonal anti-His antibody (Cisbio Cat. #61HISXLB) in a white 96 well microtiter plate (Greiner). For inhibition assays, serially diluted test compound was added to these reactions in a 0.2% final concentration of DMSO. Final buffer concentrations were 30 mM HEPES pH 7.4, 30 mM NaCl, 0.3 mM CHAPS, 20 mM phosphate pH 7.0, 320 mM KF, 0.08% BSA). After 2 hours incubation at room temperature, the fluorescence by FRET was measured at 665 and 620 nm by a SynergyH4 plate reader (Biotek). Illustrative results with the first bromodomain of Brd4 are shown below (Table 1). The binding inhibitory activity was shown by a decrease in 665 nm fluorescence relative to 620 nm. IC50 values were determined from a dose response curve.

hIL-6 mRNA = assay: Inhibition of hIL-6 mRNA transcription in LPS-stimulated U937 macrophages; format: cell-based, human; set-up: key: Active: Compounds with an IC50 value less than 30 μM are deemed to be active; settings: U937 differentiated into macrophages, 1 h pretreatment, lipopolysaccharide 3 h
Protocol: In this example, hIL-6 mRNA in tissue culture cells was quantitated to measure the transcriptional inhibition of hIL-6 when treated with a compound of the present disclosure.
A human leukemic monocyte lymphoma cell line (U937) was plated (3.2×10^4 cells per well) in a 96-well plate in 100 μL RPMI-1640 containing 10% FBS and penicillin/streptomycin, and differentiated into macrophages for 3 days in 60 ng/mL PMA ([…]) at 37° C. in 5% CO2 prior to the addition of the compound of interest. The cells were pretreated for 1 h with the test compound prior to stimulation with […] lipopolysaccharide from Escherichia coli. The cells were incubated at 37° C. for 3 h before the cells were harvested. At time of harvest, the spent media was removed from the cells and the cells were rinsed in 200 μL PBS. Cell lysis solution (70 μL) was added the cells in each well and incubated for 5-10 min at room temperature, to allow for complete cell lysis and detachment. mRNA was then prepared using the “mRNA Catcher PLUS plate” (Invitrogen), according to the protocol supplied. After the last wash, as much wash buffer as possible was aspirated without allowing the wells to dry. Elution buffer (E3, 70 μL) was then added to each well. mRNA was then eluted by incubating the mRNA Catcher PLUS plate with Elution Buffer for 5 min at 68° C. and then immediately placing the plate on ice.
The eluted mRNA isolated was then used in a one-step quantitative real-time PCR reaction, using components of the Ultra Sense Kit together with Applied Biosystems primer-probe mixes. Real-time PCR data was analyzed, normalizing the Ct values for hIL-6 to an internal control, prior to determining the fold induction of each unknown sample, relative to the control.

c-myc = assay: Inhibition of c-myc expression in cancer cell lines (mRNA, real-time PCR); format: cell-based; set-up: key: Active: Compounds with an IC50 value less than 30 μM were deemed to be active; settings: Human AML MV4-11 cells, 3 hours
Protocol: MV4-11 cells (2.5×10^4 cells) were plated in 96 well U-bottom plates with test compound or DMSO (0.1%), and incubated for 3 hours at 37° C. Cells were then harvested by centrifugation, lysed, and mRNA was isolated using the mRNA catcher plus kit (Invitrogen). Reverse transcription of the mRNA and duplex amplification of the c-myc and cyclophilin cDNAs was performed using the RNA Ultrasense kit (Invitrogen) and a ViiA7 real-time PCR machine (Applied Biosystems). IC50 values were determined from a dose response curve.

Human AML MV-4-11 cells = assay: Inhibition of cell proliferation in cancer cell lines (CellTiter Aqueous One); format: cell-based; set-up: key: Active: Compounds with an IC50 value less than 30 μM were deemed to be active.; Not Active: Compounds with an IC50 value less than 30 μM were deemed to be active; settings: 72 hours
Protocol: MV4-11 cells: 96-well plates were seeded with 5×10^4 cells per well of exponentially growing human AML MV-4-11 (CRL-9591) cells and immediately treated with two-fold dilutions of test compounds, ranging from 30 μM to 0.2 μM. Triplicate wells were used for each concentration, as well as a media only and three DMSO control wells. The cells and compounds were incubated at 37° C., 5% CO2 for 72 hours before adding 20 μL of the CellTiter Aqueous One Solution (Promega) to each well and incubating at 37° C., 5% CO2 for an additional 3-4 hours. The absorbance was taken at 490 nm in a spectrophotometer and the percentage of proliferation relative to DMSO-treated cells was calculated after correction from the blank well. IC50 were calculated using the GraphPad Prism software.

| melting point | FRET activity (IC50 < 30 μM) (Brd4 bromodomain 1) | IL-6 activity (IC50 < 30 μM) (hIL-6 mRNA) | c-myc activity (IC50 < 30 μM) (c-myc) | cell proliferation activity (IC50 < 30 μM) (Human AML MV-4-11 cells) | SMILES |
| --- | --- | --- | --- | --- | --- |
| 134 to 136 °C | – | – | – | – | COc1cc(OC)c2c(=O)[nH]c(-c3ccc(OCCO)c(-c4ccc(S(C)(=O)=O)cc4)n3)nc2c1 (as salt: methanesulfonate) [Example 25, 2-(5-(2-Hydroxyethoxy)-6-(4-(methylsulfonyl)phenyl)pyridin-2-yl)-5,7-dimethoxyquinazolin-4(3H)-one methanesulfonate] |
| 218 to 220 °C | – | – | – | – | COc1cc(OC)c2c(=O)[nH]c(-c3ccc(OCCO)c(-c4cccc(S(C)(=O)=O)c4)n3)nc2c1 (as salt: methanesulfonate) [Example 36, 2-(5-(2-Hydroxyethoxy)-6-(3-(methylsulfonyl)phenyl)pyridin-2-yl)-5,7-dimethoxyquinazolin-4(3H)-one methanesulfonate] |
| 92 to 93 °C | Active | – | – | – | COc1cc(OC)c2c(=O)[nH]c(-c3ccc(OCCO)c(-c4ccccc4S(C)(=O)=O)n3)nc2c1 [Example 30, 2-(5-(2-Hydroxyethoxy)-6-(2-(methylsulfonyl)phenyl)pyridin-2-yl)-5,7-dimethoxyquinazolin-4(3H)-one] |
| 282 to 284 °C | Active | Active | Active | Active | CCS(=O)(=O)c1ccc(-c2nc(-c3nc4cc(OC)cc(OC)c4c(=O)[nH]3)ccc2OCCO)cc1 [Example 34, 2-(6-(4-(Ethylsulfonyl)phenyl)-5-(2-hydroxyethoxy)pyridin-2-yl)-5,7-dimethoxyquinazolin-4(3H)-one] |
| 195 to 197 °C | Active | Not Active | Active | Active | CCS(=O)(=O)c1ccc(-c2nc(-c3nc4cc(OC)cc(OC)c4c(=O)[nH]3)ccc2OCCNC(C)C)cc1 [Example 35, 2-(6-(4-(Ethylsulfonyl)phenyl)-5-(2-(isopropylamino)ethoxy)pyridin-2-yl)-5,7-dimethoxyquinazolin-4(3H)-one] |

Continued, compound first:

| SMILES | melting point | FRET activity (IC50 < 30 μM) (Brd4 bromodomain 1) | IL-6 activity (IC50 < 30 μM) (hIL-6 mRNA) | c-myc activity (IC50 < 30 μM) (c-myc) | cell proliferation activity (IC50 < 30 μM) (Human AML MV-4-11 cells) |
| --- | --- | --- | --- | --- | --- |
| COc1cc(OC)c2c(=O)[nH]c(-c3ccc(OCCO)c(-c4ccccc4)n3)nc2c1 [Example 21, 2-(5-(2-Hydroxyethoxy)-6-phenylpyridin-2-yl)-5,7-dimethoxyquinazolin-4(3H)-one] | 240 to 242 °C | Active | Active | – | – |
| COc1cc(OC)c2c(=O)[nH]c(-c3ccc(OCCNC(C)C)c(-c4ccccc4)n3)nc2c1 [Example 22, 2-(5-(2-(Isopropylamino)ethoxy)-6-phenylpyridin-2-yl)-5,7-dimethoxyquinazolin-4(3H)-one] | 179 to 180 °C | Active | Active | Active | Active |
| COc1cc(OC)c2c(=O)[nH]c(-c3ccc(OCCN4CCOCC4)c(-c4ccc(S(C)(=O)=O)cc4)n3)nc2c1.Cl [Example 31, 5,7-Dimethoxy-2-(6-(4-(methylsulfonyl)phenyl)-5-(2-morpholinoethoxy)pyridin-2-yl)quinazolin-4(3H)-one hydrochloride] | 226 to 228 °C | Active | Active | Active | Not Active |
| COc1cc(OC)c2c(=O)[nH]c(-c3ccc(OCCNC(C)C)c(-c4ccccc4S(C)(=O)=O)n3)nc2c1 [Example 32, 2-(5-(2-(Isopropylamino)ethoxy)-6-(2-(methylsulfonyl)phenyl)pyridin-2-yl)-5,7-dimethoxyquinazolin-4(3H)-one] | 178 to 180 °C | Active | Not Active | – | – |
| COc1cc(OC)c2c(=O)[nH]c(-c3ccc(OCCNC(C)C)c(-c4cccc(S(C)(=O)=O)c4)n3)nc2c1 [Example 33, 2-(5-(2-(Isopropylamino)ethoxy)-6-(3-(methylsulfonyl)phenyl)pyridin-2-yl)-5,7-dimethoxyquinazolin-4(3H)-one] | 222 to 223 °C | Active | Not Active | – | – |
| COc1cc(OC)c2c(=O)[nH]c(-c3cccc(-c4ccc([S+](C)[O-])cc4)c3)nc2c1 (stereo not drawn) [Example 47, 5,7-Dimethoxy-2-(4′-(methylsulfinyl)-[1,1′-biphenyl]-3-yl)quinazolin-4(3H)-one] | > 300 °C | Not Active | Not Active | – | – |
| COc1cc(OC)c2c(=O)[nH]c(-c3cc(-c4ccc([S+](C)[O-])cc4)cs3)nc2c1 (stereo not drawn) [Example 48, 5,7-Dimethoxy-2-(4-(4-(methylsulfinyl)phenyl)thiophen-2-yl)quinazolin-4(3H)-one] | > 300 °C | Not Active | Active | Not Active | Not Active |
| C[S+]([O-])c1ccc(-c2nc(-c3nc4ccccc4c(=O)[nH]3)ccc2OCCO)cc1 (stereo not drawn) [Example 61, 2-(5-(2-Hydroxyethoxy)-6-(4-(methylsulfinyl)phenyl)pyridin-2-yl)quinazolin-4(3H)-one] | 261 to 262 °C | Active | – | – | – |
| COc1cccc2nc(-c3ccc(OCCO)c(-c4ccc(S(C)(=O)=O)cc4)n3)[nH]c(=O)c12 [Example 62, 2-(5-(2-Hydroxyethoxy)-6-(4-(methylsulfonyl)phenyl)pyridin-2-yl)-5-methoxyquinazolin-4(3H)-one] | > 300 °C | Active | Active | – | – |
| CC(C)NCCOc1ccc(-c2nc3ccccc3c(=O)[nH]2)nc1-c1ccc(S(C)(=O)=O)cc1 [Example 68, 2-(5-(2-(Isopropylamino)ethoxy)-6-(4-(methylsulfonyl)phenyl)pyridin-2-yl)quinazolin-4(3H)-one] | 188 to 189 °C | Active | – | – | – |

Source: US9765039B2, “Biaryl derivatives as bromodomain inhibitors” (Zenith Epigenetics Ltd., priority 2012, dated 2017)
